Among the test systems are HCT-116 colon; HS 578T breast; HT29 colon; LOX IMVI melanoma; M14 melanoma; SF-295 CNS; SNB-75 CNS; UACC-257 melanoma.
Common to all, as to assay: DTP human tumour cell line panel, 48 h

Each structure is given as a SMILES string. “And” between values parts separate entries of the source, which are not always exact repeats. Identical values can stand only once.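 Each compound was tested at five concentrations against cells in 96-well plates for 48 hours. GI50 = concentration required for 50% inhibition of growth. TGI denotes the concentration required for complete inhibition of growth.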

Usually GI50 stands for the concentration that inhibits growth by half. Broadly, the TGI is the concentration giving total growth inhibition. A higher TGI goes with less potent growth arrest. Consider `CN(c1ccccc1)c1c2ccccc2nc2[nH]c3ccccc3c12`, for which the GI50 with HCT-116 colon is 2.89 µM; with HS 578T breast, 3.06 µM; in the assay on HT29 colon, 3.83 µM; with LOX IMVI melanoma, 1.43 µM; in the assay with M14 melanoma, 2.21 µM; with SF-295 CNS it was 2.44 µM. Further, the GI50 with SNB-75 CNS is 3.04 µM; with UACC-257 melanoma, 6.54 µM. Moreover, the TGI is 8.72 µM with HCT-116 colon; 12.9 µM with HS 578T breast; above 100 µM with HT29 colon; 4 µM in the assay on LOX IMVI melanoma; 4.43 µM in the assay on M14 melanoma; 5.76 µM in the assay on SF-295 CNS. Besides, the values for the TGI in the assay on SNB-75 CNS and with UACC-257 melanoma were 15.1 µM and 21.4 µM, respectively.
Take `c1cc(OCCCCCOc2cccc(-c3nc4ccccc4[nH]3)c2)cc(-c2nc3ccccc3[nH]2)c1`: the GI50 in the assay with HCT-116 colon was 2.07 µM; in the assay on HS 578T breast, 2.56 µM; in the assay with HT29 colon, 2.87 µM; with LOX IMVI melanoma, 2.19 µM; in the assay on M14 melanoma, 2.57 µM; in the assay on SF-295 CNS, 1.65 µM. Further, the GI50 is 3.4 µM with SNB-75 CNS and 2.87 µM with UACC-257 melanoma. The TGI in the assay with HCT-116 colon is above 100 µM; in the assay with HS 578T breast, 8.51 µM; in the assay on HT29 colon, above 100 µM; with LOX IMVI melanoma, 6.84 µM; in the assay on M14 melanoma, above 100 µM; in the assay with SF-295 CNS it was 6.57 µM. For the same compound, the results for the TGI with SNB-75 CNS and with UACC-257 melanoma were above 100 µM and 7.85 µM, respectively.
As for `COc1ccc(-n2c(=O)c3ccccc3n(Cc3ccc(C(=O)NO)cc3)c2=O)cc1`, the GI50 with HCT-116 colon is 1.78 µM; in the assay on HS 578T breast, 2.67 µM; with HT29 colon it was 2.97 µM; in the assay with LOX IMVI melanoma, 1.76 µM; in the assay with M14 melanoma, 1.71 µM; with SF-295 CNS, 1.81 µM. Further, the GI50 in the assay with SNB-75 CNS is 1.72 µM; in the assay with UACC-257 melanoma it was 1.65 µM. Also, the TGI in the assay on HCT-116 colon turned out to be 4.16 µM; in the assay on HS 578T breast, 24.2 µM; in the assay on HT29 colon, 22.6 µM; in the assay on LOX IMVI melanoma, 3.24 µM; in the assay with M14 melanoma, 3.44 µM; with SF-295 CNS it was 3.54 µM. In addition, the TGI with SNB-75 CNS was 5.71 µM; with UACC-257 melanoma, 4.3 µM.
Turning to `O=C1[C@H](Cc2ccc(O)cc2)N2C(=O)CCN(C(=O)NCc3ccccc3)[C@H]2CN1Cc1cccc2ccccc12`, the GI50 is 0.916 µM with HCT-116 colon; 0.851 µM in the assay with HS 578T breast; 2.85 µM in the assay with HT29 colon; 1.43 µM in the assay with LOX IMVI melanoma; 3.61 µM with M14 melanoma; 3.22 µM in the assay with SF-295 CNS. Moreover, the values for the GI50 in the assay with SNB-75 CNS and in the assay on UACC-257 melanoma were 0.399 µM and 2.72 µM, respectively. Moreover, the concentration for total growth inhibition (TGI) in the assay with HCT-116 colon turned out to be 12.7 µM; in the assay on HS 578T breast, 7.24 µM; with HT29 colon, 19.3 µM; in the assay with LOX IMVI melanoma, 14.4 µM; in the assay on M14 melanoma it was 20.1 µM; with SF-295 CNS it was 17.6 µM. Besides, the TGI with SNB-75 CNS amounted to 25.3 µM; in the assay on UACC-257 melanoma, 23.9 µM.
Regarding `O=C1NC(c2ccccc2Cl)Nc2ccccc21` (stereo unspecified), the concentration for total growth inhibition (TGI) in the assay on HCT-116 colon was above 100 µM; in the assay with HS 578T breast, 54.7 µM; in the assay on HT29 colon, above 100 µM; with LOX IMVI melanoma, above 100 µM; in the assay with M14 melanoma it was above 100 µM; with SF-295 CNS it was above 72.3 µM. For the same compound, the figures for the TGI in the assay with SNB-75 CNS and in the assay with UACC-257 melanoma were 49.1 µM and above 100 µM, respectively.
For `CNS(=O)(=O)Nc1nccc(Cc2c(C)c3ccc(Oc4ncccn4)cc3oc2=O)c1F`, the GI50 with HCT-116 colon is 0.07 µM and 0.103 µM; in the assay on HS 578T breast, above 100 µM; in the assay with HT29 colon it was 0.0278 µM and 0.0231 µM; in the assay with LOX IMVI melanoma it was 0.356 µM and 0.977 µM; in the assay with M14 melanoma, 0.0116 µM and 0.0113 µM; in the assay with SF-295 CNS it was 27.8 µM and > 10 µM. Moreover, the GI50 was above 58.9 µM in the assay with SNB-75 CNS; 0.0153 µM and 0.0116 µM in the assay with UACC-257 melanoma. Besides, the TGI is above 100 µM in the assay with HCT-116 colon; above 100 µM in the assay on HS 578T breast; above 100 µM in the assay with HT29 colon; above 100 µM with LOX IMVI melanoma; 1.63 µM and > 10 µM in the assay on M14 melanoma; above 100 µM with SF-295 CNS. Moreover, the total growth inhibition concentration (TGI) is above 100 µM in the assay with SNB-75 CNS; 0.0866 µM and 0.0784 µM in the assay with UACC-257 melanoma.
For `COc1cc(/C=C/C(=O)c2nc3cc(F)ccc3nc2C)cc(OC)c1OC`, the GI50 with HCT-116 colon was 3.59 µM; with HS 578T breast it was 5.34 µM; in the assay with HT29 colon, 3.75 µM; with LOX IMVI melanoma it was 2.84 µM; in the assay on M14 melanoma, above 43.2 µM; with SF-295 CNS, above 25.2 µM. The GI50 is 9.3 µM with SNB-75 CNS and 5.51 µM in the assay on UACC-257 melanoma. For the same compound, the TGI in the assay on HCT-116 colon is above 51.6 µM; with HS 578T breast it was above 100 µM; in the assay on HT29 colon it was above 100 µM; in the assay with LOX IMVI melanoma, above 22.1 µM; in the assay with M14 melanoma, above 100 µM; with SF-295 CNS, above 100 µM. The TGI in the assay on SNB-75 CNS and with UACC-257 melanoma was above 100 µM throughout.
With `CN(C)[C@@H]1C(=O)C(C(=O)NCc2nc3[nH]cnc(=S)c3[nH]2)=C(O)[C@@]2(O)C(=O)C3=C(O)c4c(O)cccc4[C@@](C)(O)[C@H]3C[C@@H]12`, the GI50 with HCT-116 colon was 3.3 µM; in the assay on HS 578T breast, above 100 µM; in the assay with HT29 colon, 8.45 µM; with LOX IMVI melanoma, 1.23 µM; in the assay with M14 melanoma, 1.05 µM; in the assay on SF-295 CNS it was above 100 µM. Also, the GI50 with SNB-75 CNS is 1.79 µM; with UACC-257 melanoma, above 100 µM. Also, the TGI in the assay with HCT-116 colon, with HS 578T breast, with HT29 colon, with LOX IMVI melanoma, with M14 melanoma and with SF-295 CNS was above 100 µM throughout. For the same compound, the concentration for total growth inhibition (TGI) in the assay with SNB-75 CNS and in the assay on UACC-257 melanoma was above 100 µM throughout.
In the case of `COc1cc2c3c(n(CCCN)c(=O)c2cc1OC)-c1ccc(N)cc1C3=O`, the GI50 was 0.339 µM in the assay on HCT-116 colon; 2.02 µM in the assay with HS 578T breast; 2.41 µM in the assay on HT29 colon; 0.333 µM in the assay on LOX IMVI melanoma; 2.21 µM in the assay on M14 melanoma; 3.75 µM in the assay with SF-295 CNS. The results for the GI50 in the assay on SNB-75 CNS and with UACC-257 melanoma were 1.75 µM and 13.7 µM, respectively. In addition, the TGI in the assay with HCT-116 colon was determined as 1.35 µM; in the assay on HS 578T breast, 12.5 µM; in the assay on HT29 colon, 18.2 µM; in the assay with LOX IMVI melanoma, 2.16 µM; with M14 melanoma, 13.7 µM; in the assay on SF-295 CNS, 37.3 µM. The figures for the TGI in the assay on SNB-75 CNS and in the assay on UACC-257 melanoma were 12.3 µM and 50.3 µM, respectively.

The values are drawn from PubChem BioAssay (NCI).
